Values quoted from earlier work in PubChem BioAssay AID1259409 (Chemical Carcinogenesis Research Information System (CCRIS), 2018).

Test system: rodent chemically induced tumor inhibition, incidence and multiplicity
Assay: CCRIS tumor inhibitor studies
Settings: Species: MOUSE

With `C=Cc1ccc2ccc3cccc4ccc1c2c34` as the compound, how does the “tumour outcome (control, treated, inhibition, significance)” value (Carcinogen: 7,12-DIMETHYLBENZ[A]ANTHRACENE, 57-97-6, Dose [Inhibitor]: 0, 44 NMOL IN 0.2 ML ACETONE APPLIED TO BACK ONCE 5 MIN PRIOR TO CARCINOGEN DOSE (STUDY DURATION: 26 WK), Route [Inhibitor]: DERMAL, Strain/Sex: SENCAR/FEMALE, Target Tissue: Type of Lesion: SKIN: PAPILLOMA, Dose [Carcinogen]: 10 NMOL IN 0.2 ML ACETONE APPLIED TO BACK ONCE.) read?
The value was 100%, 100%, 0%, not significant.

And the “tumour outcome (control, treated, inhibition, significance)” value (Carcinogen: 7,12-DIMETHYLBENZ[A]ANTHRACENE, 57-97-6, Dose [Inhibitor]: 0, 440 NMOL IN 0.2 ML ACETONE APPLIED TO BACK ONCE 5 MIN PRIOR TO CARCINOGEN DOSE (STUDY DURATION: 26 WK), Route [Inhibitor]: DERMAL, Strain/Sex: SENCAR/FEMALE, Target Tissue: Type of Lesion: SKIN: PAPILLOMA, Dose [Carcinogen]: 10 NMOL IN 0.2 ML ACETONE APPLIED TO BACK ONCE.)?
Its value is 100%, 92%, 8%, not calculated.

What about the “tumour outcome (control, treated, inhibition, significance)” value (Carcinogen: 7,12-DIMETHYLBENZ[A]ANTHRACENE, 57-97-6, Dose [Inhibitor]: 0, 4400 NMOL IN 0.2 ML ACETONE APPLIED TO BACK ONCE 5 MIN PRIOR TO CARCINOGEN DOSE (STUDY DURATION: 20 WK), Route [Inhibitor]: DERMAL, Strain/Sex: SENCAR/FEMALE, Target Tissue: Type of Lesion: SKIN: PAPILLOMA, Dose [Carcinogen]: 10 NMOL IN 0.2 ML ACETONE APPLIED TO BACK ONCE.) of the same compound?
The value was 100%, 68%, 32%, not calculated.

What about the “tumour outcome (control, treated, inhibition, significance)” value (Carcinogen: 7,12-DIMETHYLBENZ[A]ANTHRACENE, 57-97-6, Dose [Inhibitor]: 0, 4400 NMOL IN 0.2 ML ACETONE APPLIED TO BACK ONCE 5 MIN PRIOR TO CARCINOGEN DOSE (STUDY DURATION: 26 WK), Route [Inhibitor]: DERMAL, Strain/Sex: SENCAR/FEMALE, Target Tissue: Type of Lesion: SKIN: PAPILLOMA, Dose [Carcinogen]: 10 NMOL IN 0.2 ML ACETONE APPLIED TO BACK ONCE.) of the same compound?
Its value is 100%, 79%, 21%, not calculated.

And the “tumour outcome (control, treated, inhibition, significance)” value (Carcinogen: 7,12-DIMETHYLBENZ[A]ANTHRACENE, 57-97-6, Dose [Inhibitor]: 0, 44000 NMOL IN 0.2 ML ACETONE APPLIED TO BACK ONCE 5 MIN PRIOR TO CARCINOGEN DOSE (STUDY DURATION: 20 WK), Route [Inhibitor]: DERMAL, Strain/Sex: SENCAR/FEMALE, Target Tissue: Type of Lesion: SKIN: PAPILLOMA, Dose [Carcinogen]: 10 NMOL IN 0.2 ML ACETONE APPLIED TO BACK ONCE.)?
Its value is 100%, 24%, 76%, not calculated.

And the “tumour outcome (control, treated, inhibition, significance)” value (Carcinogen: BENZO[A]PYRENE, 50-32-8, Dose [Inhibitor]: 0, 2200 NMOL IN 0.2 ML ACETONE APPLIED TO BACK ONCE 5 MIN PRIOR TO CARCINOGEN DOSE (STUDY DURATION: 26 WK), Route [Inhibitor]: DERMAL, Strain/Sex: SENCAR/FEMALE, Target Tissue: Type of Lesion: SKIN: PAPILLOMA, Dose [Carcinogen]: 200 NMOL IN 0.2 ML ACETONE APPLIED TO BACK ONCE.)?
The value was 100%, 95%, 5%, not calculated.

What about the “tumour outcome (control, treated, inhibition, significance)” value (Carcinogen: BENZO[A]PYRENE, 50-32-8, Dose [Inhibitor]: 0, 4400 NMOL IN 0.2 ML ACETONE APPLIED TO BACK ONCE 5 MIN PRIOR TO CARCINOGEN DOSE (STUDY DURATION: 20 WK), Route [Inhibitor]: DERMAL, Strain/Sex: SENCAR/FEMALE, Target Tissue: Type of Lesion: SKIN: PAPILLOMA, Dose [Carcinogen]: 200 NMOL IN 0.2 ML ACETONE APPLIED TO BACK ONCE., Promoter: PHORBOLMYRISTATE ACETATE, 16561-29-8) of the same compound?
Its value is 75%, 64%, 15%, not calculated.

What about the “tumour outcome (control, treated, inhibition, significance)” value (Carcinogen: BENZO[A]PYRENE, 50-32-8, Dose [Inhibitor]: 0, 22000 NMOL IN 0.2 ML ACETONE APPLIED TO BACK ONCE 5 MIN PRIOR TO CARCINOGEN DOSE (STUDY DURATION: 26 WK), Route [Inhibitor]: DERMAL, Strain/Sex: SENCAR/FEMALE, Target Tissue: Type of Lesion: SKIN: PAPILLOMA, Dose [Carcinogen]: 200 NMOL IN 0.2 ML ACETONE APPLIED TO BACK ONCE.) of the same compound?
The value was 100%, 59%, 41%, not calculated.

And the “tumour outcome (control, treated, inhibition, significance)” value (Carcinogen: BENZO[A]PYRENE, 50-32-8, Dose [Inhibitor]: 0, 44000 NMOL IN 0.2 ML ACETONE APPLIED TO BACK ONCE 5 MIN PRIOR TO CARCINOGEN DOSE (STUDY DURATION: 20 WK), Route [Inhibitor]: DERMAL, Strain/Sex: SENCAR/FEMALE, Target Tissue: Type of Lesion: SKIN: PAPILLOMA, Dose [Carcinogen]: 200 NMOL IN 0.2 ML ACETONE APPLIED TO BACK ONCE)?
The value was 75%, 59%, 21%, not calculated.

What about the “tumour outcome (control, treated, inhibition, significance)” value (Carcinogen: BENZO[A]PYRENE, 50-32-8, Dose [Inhibitor]: 0, 44000 NMOL IN 0.2 ML ACETONE APPLIED TO BACK ONCE 5 MIN PRIOR TO CARCINOGEN DOSE (STUDY DURATION: 26 WK), Route [Inhibitor]: DERMAL, Strain/Sex: SENCAR/FEMALE, Target Tissue: Type of Lesion: SKIN: PAPILLOMA, Dose [Carcinogen]: 200 NMOL IN 0.2 ML ACETONE APPLIED TO BACK ONCE.) of the same compound?
Its value is 100%, 38%, 62%, not calculated.

And the “tumour outcome (control, treated, inhibition, significance)” value (Carcinogen: N-METHYL-N'-NITRO-N-NITROSOGUANIDINE, 70-25-7, Dose [Inhibitor]: 0, 22000 NMOL IN 0.2 ML ACETONE APPLIED TO BACK ONCE 5 MIN PRIOR TO CARCINOGEN DOSE (STUDY DURATION: 20 WK), Route [Inhibitor]: DERMAL, Strain/Sex: SENCAR/FEMALE, Target Tissue: Type of Lesion: SKIN: PAPILLOMA, Dose [Carcinogen]: 2500 NMOL IN 0.2 ML ACETONE APPLIED TO BACK ONCE.)?
Its value is 78%, 79%, -1%, not calculated.

Which “tumour outcome (control, treated, inhibition, significance)” value (Carcinogen: 7,12-DIMETHYLBENZ[A]ANTHRACENE, 57-97-6, Dose [Inhibitor]: 0.17 NMOL IN 0.2 ML ACETONE 1 HR PRIOR TO EACH PROMOTER DOSE FOR 12 WK (STUDY DURATION: 14 WK), Route [Inhibitor]: DERMAL, Strain/Sex: SENCAR/FEMALE, Target Tissue: Type of Lesion: SKIN: PAPILLOMA, Dose [Carcinogen]: 200 NMOL IN 0.2 ML ACETONE ONCE, Promoter: 12-O-TETRADECANOYLPHORBOL-13-ACETATE, 16561-29-8) does the source give for `C/C(=C\c1ccc(C(=O)O)cc1)c1ccc2c(c1)C(C)(C)CCC2(C)C` here?
The value was 100%, 100%, 0%, not calculated.

And the “tumour outcome (control, treated, inhibition, significance)” value (Carcinogen: 7,12-DIMETHYLBENZ[A]ANTHRACENE, 57-97-6, Dose [Inhibitor]: 0.17 NMOL IN 0.2 ML ACETONE 1 HR PRIOR TO EACH PROMOTER DOSE FOR 20 WK (STUDY DURATION: 22 WK), Route [Inhibitor]: DERMAL, Strain/Sex: CD-1/FEMALE, Target Tissue: Type of Lesion: SKIN: PAPILLOMA, Dose [Carcinogen]: 200 NMOL IN 0.2 ML ACETONE ONCE, Promoter: 12-O-TETRADECANOYLPHORBOL-13-ACETATE, 16561-29-8)?
The value was 94%, 80%, 15%, not calculated.

And the “tumour outcome (control, treated, inhibition, significance)” value (Carcinogen: 7,12-DIMETHYLBENZ[A]ANTHRACENE, 57-97-6, Dose [Inhibitor]: 1.7 NMOL IN 0.2 ML ACETONE 1 HR PRIOR TO EACH PROMOTER DOSE FOR 12 WK (STUDY DURATION: 14 WK), Route [Inhibitor]: DERMAL, Strain/Sex: SENCAR/FEMALE, Target Tissue: Type of Lesion: SKIN: PAPILLOMA, Dose [Carcinogen]: 200 NMOL IN 0.2 ML ACETONE ONCE, Promoter: 12-O-TETRADECANOYLPHORBOL-13-ACETATE, 16561-29-8)?
The value was 100%, 78%, 22%, not calculated.

What about the “tumour outcome (control, treated, inhibition, significance)” value (Carcinogen: 7,12-DIMETHYLBENZ[A]ANTHRACENE, 57-97-6, Dose [Inhibitor]: 1.7 NMOL IN 0.2 ML ACETONE 1 HR PRIOR TO EACH PROMOTER DOSE FOR 20 WK (STUDY DURATION: 22 WK), Route [Inhibitor]: DERMAL, Strain/Sex: CD-1/FEMALE, Target Tissue: Type of Lesion: SKIN: PAPILLOMA, Dose [Carcinogen]: 200 NMOL IN 0.2 ML ACETONE ONCE, Promoter: 12-O-TETRADECANOYLPHORBOL-13-ACETATE, 16561-29-8) of the same compound?
Its value is 94%, 31%, 67%, not calculated.

What about the “tumour outcome (control, treated, inhibition, significance)” value (Carcinogen: 7,12-DIMETHYLBENZ[A]ANTHRACENE, 57-97-6, Dose [Inhibitor]: 17 NMOL IN 0.2 ML ACETONE 1 HR PRIOR TO EACH PROMOTER DOSE FOR 12 WK (STUDY DURATION: 14 WK), Route [Inhibitor]: DERMAL, Strain/Sex: SENCAR/FEMALE, Target Tissue: Type of Lesion: SKIN: PAPILLOMA, Dose [Carcinogen]: 200 NMOL IN 0.2 ML ACETONE ONCE, Promoter: 12-O-TETRADECANOYLPHORBOL-13-ACETATE, 16561-29-8) of the same compound?
The value was 100%, 0%, 100%, not calculated.

Which “tumour outcome (control, treated, inhibition, significance)” value (Carcinogen: 4-(METHYLNITROSAMINO)-1-(3-PYRIDYL)-1-BUTANONE, 64091-91-4, Dose [Inhibitor]: 0, 0.04 UMOL ONCE 2 HR PRIOR TO CARCINOGEN DOSE (STUDY DURATION: 16 WK), Route [Inhibitor]: GAVAGE, Strain/Sex: STRAIN-A/FEMALE, Target Tissue: Type of Lesion: LUNG: ADENOMA, Dose [Carcinogen]: 10 UMOL IN 0.1 ML SALINE ONCE, Promoter: NONE USED) does the source give for `S=C=NCCCCCCCCc1ccccc1` here?
The value was 100%, 100%, 0%, not significant.

And the “tumour outcome (control, treated, inhibition, significance)” value (Carcinogen: 4-(METHYLNITROSAMINO)-1-(3-PYRIDYL)-1-BUTANONE, 64091-91-4, Dose [Inhibitor]: 0, 0.1 UMOL ONCE 2 HR PRIOR TO CARCINOGEN DOSE (STUDY DURATION: 16 WK), Route [Inhibitor]: GAVAGE, Strain/Sex: STRAIN-A/FEMALE, Target Tissue: Type of Lesion: LUNG: ADENOMA, Dose [Carcinogen]: 10 UMOL IN 0.1 ML SALINE ONCE, Promoter: NONE USED)?
Its value is 100%, 100%, 0%, not significant.

And the “tumour outcome (control, treated, inhibition, significance)” value (Carcinogen: 4-(METHYLNITROSAMINO)-1-(3-PYRIDYL)-1-BUTANONE, 64091-91-4, Dose [Inhibitor]: 0, 0.2 UMOL ONCE 2 HR PRIOR TO CARCINOGEN DOSE (STUDY DURATION: 16 WK), Route [Inhibitor]: GAVAGE, Strain/Sex: STRAIN-A/FEMALE, Target Tissue: Type of Lesion: LUNG: ADENOMA, Dose [Carcinogen]: 10 UMOL IN 0.1 ML SALINE ONCE, Promoter: NONE USED)?
Its value is 100%, 90%, 10%, p<0.05.
